The record followed here is PubChem BioAssay AID588576 (Sanford-Burnham Center for Chemical Genomics, 2011).

One may read the EC50 as the concentration at which the effect is half-maximal.

The target of this assay is Caspase-3 (Homo sapiens) + Caspase-9 (Homo sapiens) (UniProt P42574+P55211). As to the kind of experiment: activation of LZ-caspase-9 coupled caspase-3 activity – biochemical, fluorescence, LZ-caspase-9 mutant, selectivity assay for Apaf-1 activator project, SAR follow-up (AID 588576). The following applies: recombinant LZ-caspase-9/procaspase-3, DEVD-Rh110 fluorescence, 55 min.
Chain of Caspase-3 (Homo sapiens) + Caspase-9 (Homo sapiens) (P42574 whole entry, looked up): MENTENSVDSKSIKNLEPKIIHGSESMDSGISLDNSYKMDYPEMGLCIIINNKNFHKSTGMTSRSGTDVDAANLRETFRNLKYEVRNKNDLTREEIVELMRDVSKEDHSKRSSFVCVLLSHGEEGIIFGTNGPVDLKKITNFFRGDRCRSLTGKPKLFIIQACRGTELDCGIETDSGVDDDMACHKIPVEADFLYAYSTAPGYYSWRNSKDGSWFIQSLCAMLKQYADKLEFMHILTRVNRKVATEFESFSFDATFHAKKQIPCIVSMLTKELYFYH
Chain of Caspase-3 (Homo sapiens) + Caspase-9 (Homo sapiens) (P55211 whole entry, looked up): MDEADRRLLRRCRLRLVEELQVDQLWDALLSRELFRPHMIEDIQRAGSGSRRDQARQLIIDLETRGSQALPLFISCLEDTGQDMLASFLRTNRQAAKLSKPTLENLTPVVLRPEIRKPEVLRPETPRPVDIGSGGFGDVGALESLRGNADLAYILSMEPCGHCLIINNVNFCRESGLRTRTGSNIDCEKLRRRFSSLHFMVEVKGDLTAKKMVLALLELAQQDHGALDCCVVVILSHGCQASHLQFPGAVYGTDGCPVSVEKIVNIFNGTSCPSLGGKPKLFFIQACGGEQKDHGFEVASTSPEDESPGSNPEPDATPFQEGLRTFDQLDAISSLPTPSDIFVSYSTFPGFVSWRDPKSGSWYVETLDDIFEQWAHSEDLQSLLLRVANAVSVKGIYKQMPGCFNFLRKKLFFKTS

Active and inactive are the calls of the source.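 Rule for the calls: active = an EC50 below a set limit for the caspase 9 and 3 cleavage signal; inactive = the rest.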

Take `O=C(O)C1CC(c2ccc(F)cc2)=NO1` (configuration not stated): the EC50 is > 100 µM (inactive).

For the compound `Cc1cc(NC(=O)C2CC(c3ccc(F)cc3)=NO2)n(-c2ccccc2)n1` (configuration not stated), the EC50 is > 100 µM (inactive). As for `Cc1cc(C)n(CC(C)C(=O)Nc2ccc(Cl)c(Cl)c2)n1` (configuration not stated), the EC50 was > 100 µM (inactive). Take `CC(Cc1c[nH]c2ccccc12)C(=O)O` (configuration not stated): the EC50 was > 100 µM (inactive). In the case of `CCOc1ccccc1NC(=O)CCS(=O)(=O)c1ccc2c(c1)OCCO2` it was > 100 µM (inactive); in that of `O=C(Nc1nc2ccsc2c(=O)s1)c1cccs1`, > 100 µM (inactive). `Cc1cc(C)n(C(C)CC(=O)Nc2cccnc2)n1` (configuration not stated): the EC50 was > 100 µM (inactive). Consider `Cc1cc(C)c(O)c(N2CC(C(=O)O)CC2=O)c1` (configuration not stated), for which the EC50 was > 100 µM (inactive). In the case of `Cc1nn(CC(C)C(=O)O)c(C)c1Br` (configuration not stated), the EC50 was > 100 µM (inactive).

As to `Cc1c(NC(=O)C2CC(c3ccc(F)cc3)=NO2)c(=O)n(-c2ccccc2)n1C` (configuration not stated), the EC50 is > 100 µM (inactive). Regarding `Cc1nn(Cc2ccccc2)c(C)c1CCC(=O)O`, the EC50 was > 100 µM (inactive). Regarding `O=C(Nc1nc2ccsc2c(=O)s1)C1CCC1`, the EC50 was > 100 µM (inactive). On to `O=C(Nc1nc2ccsc2c(=O)s1)c1ccco1`, for which the EC50 is > 100 µM (inactive). In the case of `O=C(c1ccco1)N1CCN(C(=O)C2CC(c3ccc(F)cc3)=NO2)CC1` (configuration not stated) it was > 100 µM (inactive); in that of `O=C(Nc1ccc(F)cc1F)C1CC(c2ccc(F)cc2)=NO1` (configuration not stated), > 100 µM (inactive); in that of `O=C1CC2(CC(c3c(F)cccc3Cl)=NO2)C(=O)N1c1ccccc1` (configuration not stated), > 100 µM (inactive).

As for `Cc1cc(C)n(C(C)C(C)C(=O)O)n1` (configuration not stated), the EC50 was > 100 µM (inactive).
